Source: paper PMC12645083, “Microwave‐Enhanced Synthesis of 2‐Styrylquinoline‐4‐Carboxamides With Promising Anti‐Lymphoma Activity” (Archiv Der Pharmazie, 2025)

Legend:
Assay in all cases: In vitro antiproliferative activity, resazurin cell viability
Assay type in all cases: cell-based
A549 = conditions: Homo sapiens, non-small cell lung cancer, 72 h of treatment, mean ± SEM
Description: (§1) To test the newly synthesized compounds, various human cell lines were employed. HD‐MB03 cells were purchased from DSMZ (Braunschweig, Germany), while A549, MDA‐MB‐231, RPMI‐8420, SU‐DHL‐8, TOLEDO, VL51, SU‐DHL‐1, SU‐DHL‐18, and KM‐H2 were obtained from ATCC (Manassas, VA, USA). Cells were cultured in DMEM (for MDA‐MB‐231 and A549) or RPMI‐1640 (for RPMI‐8420, SU‐DHL‐8, TOLEDO, VL51, SU‐DHL‐1, SU‐DHL‐18, KM‐H2, and HD‐MB03) media (Gibco, Milan, Italy). Both media were supplemented with 115 units/mL penicillin G (Gibco, Milan, Italy), 115 µg/mL streptomycin (Invitrogen, Milan, Italy), and 10% fetal bovine serum (Invitrogen, Milan, Italy). Peripheral blood mononuclear cells (PBMCs) were isolated from healthy donors as previously described. For cytotoxicity assays, PBMCs were resuspended at 5 × 10⁵ cells/mL in complete RPMI medium with or without 2.5 µg/mL phytohemagglutinin (PHA) (Irvine Scientific) to stimulate T‐cell activation and proliferation. All cell lines were maintained at 37°C in a humidified atmosphere containing 5% CO₂. All compounds were dissolved in DMSO at a 10 mM stock concentration. For dose–response assays, cells were seeded in 96‐well plates at densities optimized for each cell line: HD‐MB03 at 10,000 cells/well, A549 at 4000 cells/well, and MDA‐MB‐231 at 7000 cells/well. All other cell lines were seeded at 20,000 cells/well in a final volume of 100 µL per well. After 24 h, cells were treated with a 6‐point serial dilution of compounds starting from 10 µM, in triplicate for statistical analysis. Seventy‐2 h posttreatment, 10 µL of resazurin solution (100 µg/mL) was added to each well, and cells were incubated for an additional 3–6 h. Fluorescence was measured using a Spark 10 M microplate reader (Tecan Group Ltd., Männedorf, Switzerland) with excitation at 535 nm and emission at 600 nm. The IC₅₀ was defined as the concentration of compound required to inhibit cell proliferation by 50% compared to cells treated with the highest DMSO concentration.
(§2) To test the newly synthesized compounds, various human cell lines were employed. HD-MB03 cells were purchased from DSMZ (Braunschweig, Germany), while A549, MDA-MB-231, RPMI-8420, SU-DHL-8, TOLEDO, VL51, SU-DHL-1, SU-DHL-18, and KM-H2 were obtained from ATCC (Manassas, VA, USA). Cells were cultured in DMEM (for MDA-MB-231 and A549) or RPMI-1640 (for RPMI-8420, SU-DHL-8, TOLEDO, VL51, SU-DHL-1, SU-DHL-18, KM-H2, and HD-MB03) media (Gibco, Milan, Italy). Both media were supplemented with 115 units/mL penicillin G (Gibco, Milan, Italy), 115 µg/mL streptomycin (Invitrogen, Milan, Italy), and 10% fetal bovine serum (Invitrogen, Milan, Italy). Peripheral blood mononuclear cells (PBMCs) were isolated from healthy donors as previously described. ^[1] For cytotoxicity assays, PBMCs were resuspended at 5 × 10⁵ cells/mL in complete RPMI medium with or without 2.5 µg/mL phytohemagglutinin (PHA) (Irvine Scientific) to stimulate T cell activation and proliferation. All cell lines were maintained at 37 °C in a humidified atmosphere containing 5% CO₂. All compounds were dissolved in DMSO at a 10 mM stock concentration. For dose–response assays, cells were seeded in 96-well plates at densities optimized for each cell line: HD-MB03 at 10,000 cells/well, A549 at 4,000 cells/well, and MDA-MB-231 at 7,000 cells/well. All other cell lines were seeded at 20,000 cells/well in a final volume of 100 µL per well. After 24 hours, cells were treated with a 6-point serial dilution of compounds starting from 10 µM, in triplicate for statistical analysis. Seventy-two hours post-treatment, 10 µL of resazurin solution (100 µg/mL) was added to each well, and cells were incubated for an additional 3–6 hours. Fluorescence was measured using a Spark 10M microplate reader (Tecan Group Ltd., Männedorf, Switzerland) with excitation at 535 nm and emission at 600 nm. […]

SU-DHL-8 = conditions: Homo sapiens, B lymphocyte, large cell lymphoma, 72 h of treatment, mean ± SEM
Description: as §1, §2

MDA-MB-231 = conditions: Homo sapiens, triple-negative breast cancer, 72 h of treatment, mean ± SEM
Description: as §1, §2

HD-MB03 = conditions: Homo sapiens, medulloblastoma cells, 72 h of treatment, mean ± SEM, at least three experiments
Description: as §1, §2

RPMI-8402 = conditions: Homo sapiens, T-lymphoblastic leukemia cells, 72 h of treatment, mean ± SEM
Description: as §1, §2

SMILES	IC50 (A549) [µM]	IC50 (SU-DHL-8) [µM]	IC50 (MDA-MB-231) [µM]	IC50 (HD-MB03) [µM]	IC50 (RPMI-8402) [µM]
O=C(Nc1ccc(C(F)(F)F)cc1)c1cc(/C=C/c2ccccc2[N+](=O)[O-])nc2ccccc12 [4ac, (E)-2-(2-nitrostyryl)-N-(4-(trifluoromethyl)phenyl)quinoline-4-carboxamide]	> 10	> 10	> 10	> 10	> 10
O=C(Nc1ccc(C(F)(F)F)cc1)c1cc(/C=C/c2cccc([N+](=O)[O-])c2)nc2ccccc12 [4ad, (E)-2-(3-nitrostyryl)-N-(4-(trifluoromethyl)phenyl)quinoline-4-carboxamide]	> 10	> 10	> 10	> 10	> 10
COc1cc(/C=C/c2cc(C(=O)Nc3cc(OC)c(OC)c(OC)c3)c3ccccc3n2)cc(OC)c1OC [4o, (E)-N-(3,4,5-trimethoxyphenyl)-2-(3,4,5-trimethoxystyryl)quinoline-4-carboxamide]	> 10	2.09 ± 0.14	5.95 ± 0.89	> 10	4.55 ± 0.42
COc1cc(/C=C/c2cc(C(=O)Nc3ccccc3)c3ccccc3n2)cc(OC)c1OC [4k, (E)-N-phenyl-2-(3,4,5-trimethoxystyryl)quinoline-4-carboxamide]	> 10	5.33 ± 0.52	> 10	> 10	> 10
Cc1cccc(NC(=O)c2cc(/C=C/c3ccccc3)nc3ccccc23)c1 [4b, (E)-2-styryl-N-(m-tolyl)quinoline-4-carboxamide]	> 10	5.05 ± 0.58	> 10	> 10	> 10
Cc1cccc(C)c1NC(=O)c1cc(/C=C/c2ccccc2)nc2ccccc12 [4d, (E)-N-(2,6-dimethylphenyl)-2-styrylquinoline-4-carboxamide]	> 10	6.53 ± 1.49	5.6 ± 0.79	> 10	> 10
COc1cc(/C=C/c2cc(C(=O)Nc3ccc(C)cc3)c3ccccc3n2)cc(OC)c1OC [4m, (E)-N-(p-tolyl)-2-(3,4,5-trimethoxystyryl)quinoline-4-carboxamide]	> 10	> 10	> 10	> 10	> 10
O=C(Nc1cccc(Cl)c1)c1cc(/C=C/c2ccccc2)nc2ccccc12 [4f, (E)-N-(3-chlorophenyl)-2-styrylquinoline-4-carboxamide]	> 10	8.27 ± 0.72	> 10	> 10	> 10
O=C(Nc1ccc([N+](=O)[O-])c(C(F)(F)F)c1)c1cc(/C=C/c2ccc(Cl)c(Cl)c2)nc2ccccc12 [4x, (E)-2-(3,4-dichlorostyryl)-N-(4-nitro-3-(trifluoromethyl)phenyl)quinoline-4-carboxamide]	> 10	> 10	> 10	> 10	> 10
COc1cc(/C=C/c2cc(C(=O)Nc3cccc(Cl)c3)c3ccccc3n2)cc(OC)c1OC [4p, (E)-N-(3-chlorophenyl)-2-(3,4,5-trimethoxystyryl)quinoline-4-carboxamide]	> 10	4.46 ± 0.37	5.7 ± 0.1	8.31 ± 0.64	9.06 ± 0.59
COc1cc(/C=C/c2cc(C(=O)Nc3ccc(C(F)(F)F)cc3)c3ccccc3n2)cc(OC)c1OC [4r, (E)-N-(4-(trifluoromethyl)phenyl)-2-(3,4,5-trimethoxystyryl)quinoline-4-carboxamide]	> 10	2.13 ± 0.08	> 10	> 10	> 10
COc1cc(/C=C/c2cc(C(=O)Nc3ccc(Cl)cc3)c3ccccc3n2)cc(OC)c1OC [4q, (E)-N-(4-chlorophenyl)-2-(3,4,5-trimethoxystyryl)quinoline-4-carboxamide]	> 10	4.61 ± 0.84	> 10	> 10	> 10
COc1cc(/C=C/c2cc(C(=O)Nc3ccc([N+](=O)[O-])c(C(F)(F)F)c3)c3ccccc3n2)cc(OC)c1OC [4t, (E)-N-(4-nitro-3-(trifluoromethyl)phenyl)-2-(3,4,5-trimethoxystyryl)quinoline-4-carboxamide]	> 10	> 10	> 10	> 10	> 10
Cc1cccc(/C=C/c2cc(C(=O)Nc3ccc([N+](=O)[O-])c(C(F)(F)F)c3)c3ccccc3n2)c1 [4u, (E)-2-(3-methylstyryl)-N-(4-nitro-3-(trifluoromethyl)phenyl)quinoline-4-carboxamide]	> 10	> 10	> 10	> 10	> 10

The next lines start with results.

IC50 (A549) [µM]	IC50 (SU-DHL-8) [µM]	IC50 (MDA-MB-231) [µM]	SMILES	IC50 (HD-MB03) [µM]	IC50 (RPMI-8402) [µM]
> 10	6.61 ± 0.76	> 10	COc1cc(NC(=O)c2cc(/C=C/c3ccccc3)nc3ccccc23)cc(OC)c1OC [4e, (E)-2-styryl-N-(3,4,5-trimethoxyphenyl)quinoline-4-carboxamide]	7.1 ± 1.15	> 10
> 10	4.67 ± 0.14	> 10	COc1ccc(/C=C/c2cc(C(=O)Nc3ccc(Cl)cc3)c3ccccc3n2)cc1 [4ae, (E)-N-(4-chlorophenyl)-2-(4-methoxystyryl)quinoline-4-carboxamide]	> 10	6.41 ± 1.16
7.71 ± 0.56	3.49 ± 0.11	5.52 ± 0.22	O=C(Nc1ccc(Cl)cc1)c1cc(/C=C/c2ccc(Cl)c(Cl)c2)nc2ccccc12 [4ag, (E)-N-(4-chlorophenyl)-2-(3,4-dichlorostyryl)quinoline-4-carboxamide]	6.93 ± 0.06	6.42 ± 0.43
> 10	> 10	> 10	Cc1ccc(NC(=O)c2cc(/C=C/c3ccccc3)nc3ccccc23)cc1 [4c, (E)-2-styryl-N-(p-tolyl)quinoline-4-carboxamide]	> 10	> 10
> 10	7.8 ± 1.3	> 10	O=C(Nc1ccc(Cl)cc1)c1cc(/C=C/c2ccccc2)nc2ccccc12 [4g, (E)-N-(4-chlorophenyl)-2-styrylquinoline-4-carboxamide]	> 10	6.31 ± 0.36
> 10	> 10	> 10	O=C(Nc1ccc(C(F)(F)F)cc1)c1cc(/C=C/c2ccc(Br)cc2)nc2ccccc12 [4aa, (E)-2-(4-bromostyryl)-N-(4-(trifluoromethyl)phenyl)quinoline-4-carboxamide]	> 10	> 10
9.34 ± 0.18	2.94 ± 0.08	5.95 ± 0.66	COc1cc(/C=C/c2cc(C(=O)Nc3cccc(C)c3)c3ccccc3n2)cc(OC)c1OC [4l, (E)-N-(m-tolyl)-2-(3,4,5-trimethoxystyryl)quinoline-4-carboxamide]	> 10	3.75 ± 0.18
